The values below come from US8404708B2, “Dual NK1/NK3 receptor antagonists” (Hoffmann-La Roche Inc., priority 2004, dated 2013).

Where two headings read alike, the source gives them in different places.

In test [1] the target is T1, Recombinant human NK3 (hNK3) receptor (Homo sapiens, UniProt P29371).
T1 construct: expressed in transfected cells
T1 sequence (P29371 1-465): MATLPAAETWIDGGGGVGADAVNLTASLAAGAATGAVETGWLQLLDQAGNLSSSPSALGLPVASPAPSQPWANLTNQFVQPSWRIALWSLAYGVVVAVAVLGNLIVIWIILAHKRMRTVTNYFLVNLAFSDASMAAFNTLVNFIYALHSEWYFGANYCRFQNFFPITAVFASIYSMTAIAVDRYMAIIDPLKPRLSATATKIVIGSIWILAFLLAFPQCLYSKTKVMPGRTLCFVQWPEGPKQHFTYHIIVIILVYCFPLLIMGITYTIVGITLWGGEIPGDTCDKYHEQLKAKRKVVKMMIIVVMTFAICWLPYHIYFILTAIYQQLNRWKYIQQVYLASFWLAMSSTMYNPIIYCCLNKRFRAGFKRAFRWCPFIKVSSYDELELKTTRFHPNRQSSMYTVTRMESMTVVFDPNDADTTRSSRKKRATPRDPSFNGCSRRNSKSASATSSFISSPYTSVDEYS
Description: NK3 receptor binding, [3H]SR142801 displacement, membrane preparations. The essentials: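 Buffer: Tris-HCl 50 mM pH 7.4, BSA 0.1%, MnCl2 4 mM, phosphoramidon 1 μM. ~2.5 μg membrane/well, 90 min RT. NSB with SB222200 (10 μM). Vacuum filtration over 0.3% PEI-treated GF/C, cold Tris/BSA washes, scintillation count; duplicates, ≥2 experiments.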

Test [2] has as its target human NK1 receptor (Homo sapiens, UniProt P25103). The test is described as follows: NK1 receptor binding, [3H]substance P displacement, CHO cell membranes.
Where [3] appears, read: second value of the cell NK1/NK3, read-out: pKi NK3 (converted).
Setting [4] is: first value of the cell NK1/NK3, read-out: pKi NK1 (converted).
The mark [5] stands for this setting: second value of the cell pKi NK1/NK3, hNK3 receptor, [3H]SR142801.
Where [6] appears, read: first value of the cell pKi NK1/NK3, human NK1 receptor, [3H]substance P.

Sequence of human NK1 receptor (P25103 whole entry): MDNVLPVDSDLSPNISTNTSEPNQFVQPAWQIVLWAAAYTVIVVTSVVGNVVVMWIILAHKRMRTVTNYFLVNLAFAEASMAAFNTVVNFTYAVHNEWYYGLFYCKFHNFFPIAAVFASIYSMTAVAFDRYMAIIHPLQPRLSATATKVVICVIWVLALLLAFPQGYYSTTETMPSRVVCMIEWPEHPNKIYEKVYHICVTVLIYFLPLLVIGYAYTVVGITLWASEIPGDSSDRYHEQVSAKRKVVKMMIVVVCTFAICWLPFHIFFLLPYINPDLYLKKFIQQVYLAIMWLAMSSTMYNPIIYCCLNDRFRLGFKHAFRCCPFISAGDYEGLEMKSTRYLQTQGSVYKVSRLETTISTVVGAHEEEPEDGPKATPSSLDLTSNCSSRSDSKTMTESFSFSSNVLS

For the compound `CN(C(=O)C(C)(C)c1cc(C(F)(F)F)cc(C(F)(F)F)c1)c1cnc(N2CCC[C@H]2CO)cc1-c1ccc(Cl)cc1Cl` [Example 283, (S)-2-(3,5-Bis-trifluoromethyl-phenyl)-N-[4-(2,4-dichloro-phenyl)-6-(2-hydroxymethyl-pyrrolidin-1-yl)-pyridin-3-yl]-N-methyl-isobutyramide], the values for the Ki in test [1] (setting [3]) and in test [2] (setting [4]) were 1.48 nM and 2.82 nM, respectively.
On the same counts, the results for `CN(C(=O)C(C)(C)c1cc(C(F)(F)F)cc(C(F)(F)F)c1)c1cnc(N2C[C@@H](O)C[C@H]2CO)cc1-c1ccccc1F` [Example 242, (2S,4S)-2-(3,5-Bis-trifluoromethyl-phenyl)-N-[4-(2-fluoro-phenyl)-6-(4-hydroxy-2-hydroxymethyl-pyrrolidin-1-yl)-pyridin-3-yl]-N-methyl-isobutyramide] are 6.92 nM and 1.32 nM.
Regarding `CN(C(=O)C(C)(C)c1cc(C(F)(F)F)cc(C(F)(F)F)c1)c1cnc(N2C[C@H](O)C[C@H]2CO)cc1-c1ccccc1C=O` [Example 224, (2S,4R)-2-(3,5-Bis-trifluoromethyl-phenyl)-N-[4-(2-formyl-phenyl)-6-(4-hydroxy-2-hydroxymethyl-pyrrolidin-1-yl)-pyridin-3-yl]-N-methyl-isobutyramide], the Ki was 1.51 nM in test [1] (setting [3]) and 1.12 nM in test [2] (setting [4]).
On the same counts, the results for `Cc1cc(-c2cc(N3C[C@H](O)C[C@H]3CO)ncc2N(C)C(=O)C(C)(C)c2cc(C(F)(F)F)cc(C(F)(F)F)c2)ccc1F` [Example 211, (2S,4R)-2-(3,5-Bis-trifluoromethyl-phenyl)-N-[4-(4-fluoro-3-methyl-phenyl)-6-(4-hydroxy-2-hydroxymethyl-pyrrolidin-1-yl)-pyridin-3-yl]-N-methyl-isobutyramide] are 15.5 nM and 1.66 nM.
`Cc1ccccc1-c1cc(NC[C@@H](C)O)ncc1N(C)C(=O)C(C)(C)c1cc(C(F)(F)F)cc(C(F)(F)F)c1` [Example 173, (R)-2-(3,5-Bis-trifluoromethyl-phenyl)-N-[6-(2-hydroxy-propylamino)-4-o-tolyl-pyridin-3-yl]-N-methyl-isobutyramide]: the Ki in test [1] (setting [5]) was 1.86 nM; in test [2] (setting [6]) it was 1.91 nM.
The matching figures for `C[C@H](O)[C@@H](CO)Nc1cc(-c2ccccc2Cl)c(N(C)C(=O)C(C)(C)c2cc(C(F)(F)F)cc(C(F)(F)F)c2)cn1` [Example 145, (1R,2S)-2-(3,5-Bis-trifluoromethyl-phenyl)-N-[4-(2-chloro-phenyl)-6-(2-hydroxy-1-hydroxymethyl-propylamino)-pyridin-3-yl]-N-methyl-isobutyramide]: 7.94 nM and 0.832 nM.
Regarding `Cc1cc(F)ccc1-c1cc(N2[C@H](CO)CC[C@@H]2CO)ncc1N(C)C(=O)C(C)(C)c1cc(C(F)(F)F)cc(C(F)(F)F)c1` [Example 197, (2R,5S)-N-[6-(2,5-Bis-hydroxymethyl-pyrrolidin-1-yl)-4-(4-fluoro-2-methyl-phenyl)-pyridin-3-yl]-2-(3,5-bis-trifluoromethyl-phenyl)-N-methyl-isobutyramide], the Ki in test [1] (setting [5]) was 3.89 nM; in test [2] (setting [6]), 2.88 nM.
`CN(C(=O)C(C)(C)c1cc(C(F)(F)F)cc(C(F)(F)F)c1)c1cnc(N2C[C@H](O)C[C@H]2CO)cc1-c1ccc(F)cc1C=O` [Example 222, (2S,4R)-2-(3,5-Bis-trifluoromethyl-phenyl)-N-[4-(4-fluoro-2-formyl-phenyl)-6-(4-hydroxy-2-hydroxymethyl-pyrrolidin-1-yl)-pyridin-3-yl]-N-methyl-isobutyramide]: the Ki in test [1] (setting [3]) is 1.02 nM; in test [2] (setting [4]) it was 1.05 nM.
For `Cc1ccccc1-c1cc(N2C[C@@H](O)[C@@H](O)C2)ncc1N(C)C(=O)C(C)(C)c1cc(C(F)(F)F)cc(C(F)(F)F)c1` [Example 184, (3R,4S)-2-(3,5-Bis-trifluoromethyl-phenyl)-N-[6-(3,4-dihydroxy-pyrrolidin-1-yl)-4-o-tolyl-pyridin-3-yl]-N-methyl-isobutyramide], the figures for the Ki in test [1] (setting [5]) and in test [2] (setting [6]) were 20 nM and 1.23 nM, respectively.
On the same counts, the results for `CC(=O)NC1CCN(c2cc(-c3ccc(F)cc3C)c(N(C)C(=O)C(C)(C)c3cc(C(F)(F)F)cc(C(F)(F)F)c3)cn2)CC1` [Example 114, N-[4-Acetylamino-4′-(4-fluoro-2-methyl-phenyl)-3,4,5,6-tetrahydro-2H-[1,2′]bipyridinyl-5′-yl]-2-(3,5-bis-trifluoromethyl-phenyl)-N-methyl-isobutyramide] are 16.2 nM and 0.603 nM.
The matching figures for `Cc1ccccc1-c1cc(N2CCC[C@H]2CO)ncc1N(C)C(=O)C(C)(C)c1cc(F)cc(C(F)(F)F)c1` [Example 13, (S)-2-(3-Fluoro-5-trifluoromethyl-phenyl)-N-[6-(2-hydroxymethyl-pyrrolidin-1-yl)-4-o-tolyl-pyridin-3-yl]-N-methyl-isobutyramide]: 1.55 nM and 2.19 nM.
On the same counts, the results for `Cc1cc(F)ccc1-c1cc(N2CCC(S(C)(=O)=O)C2)ncc1N(C)C(=O)C(C)(C)c1cc(C(F)(F)F)cc(C(F)(F)F)c1` (racemic) [Example 170, (RS)-2-(3,5-Bis-trifluoromethyl-phenyl)-N-[4-(4-fluoro-2-methyl-phenyl)-6-(3-methanesulfonyl-pyrrolidin-1-yl)-pyridin-3-yl]-N-methyl-isobutyramide] are 9.12 nM and 1.95 nM.
`Cc1cc(F)ccc1-c1cc(N2C[C@H](O)C[C@H]2CO)ncc1N(C)C(=O)C(C)(C)c1cc(Cl)cc(Cl)c1` [Example 23, (2S,4R)-2-(3,5-Dichloro-phenyl)-N-[4-(4-fluoro-2-methyl-phenyl)-6-(4-hydroxy-2-hydroxymethyl-pyrrolidin-1-yl)-pyridin-3-yl]-N-methyl-isobutyramide]: the values for the Ki in test [1] (setting [5]) and in test [2] (setting [6]) were 1.58 nM and 0.891 nM, respectively.
For `Cc1cc(-c2cc(N3C[C@@H](O)C[C@H]3CO)ncc2N(C)C(=O)C(C)(C)c2cc(C(F)(F)F)cc(C(F)(F)F)c2)ccc1F` [Example 248, (2S,4S)-2-(3,5-Bis-trifluoromethyl-phenyl)-N-[4-(4-fluoro-3-methyl-phenyl)-6-(4-hydroxy-2-hydroxymethyl-pyrrolidin-1-yl)-pyridin-3-yl]-N-methyl-isobutyramide], the Ki in test [1] (setting [3]) is 27.5 nM; in test [2] (setting [4]) it was 2.19 nM.
On the same counts, the results for `CN(C(=O)C(C)(C)c1cc(C(F)(F)F)cc(C(F)(F)F)c1)c1cnc(N2C[C@@H](O)C[C@H]2CO)cc1-c1ccccc1Br` [Example 246, (2S,4S)-2-(3,5-Bis-trifluoromethyl-phenyl)-N-[4-(2-bromo-phenyl)-6-(4-hydroxy-2-hydroxymethyl-pyrrolidin-1-yl)-pyridin-3-yl]-N-methyl-isobutyramide] are 1.48 nM and 1.91 nM.
The matching figures for `CN(C(=O)C(C)(C)c1cc(C(F)(F)F)cc(C(F)(F)F)c1)c1cnc(N2CC[C@H](O)[C@H]2CO)cc1-c1cccc(Cl)c1Cl` [Example 271, (2R,3S)-2-(3,5-Bis-trifluoromethyl-phenyl)-N-[4-(2,3-dichloro-phenyl)-6-(3-hydroxy-2-hydroxymethyl-pyrrolidin-1-yl)-pyridin-3-yl]-N-methyl-isobutyramide]: 1.38 nM and 3.02 nM.
For the compound `Cc1c(F)cccc1-c1cc(N2C[C@H](O)C[C@H]2CO)ncc1N(C)C(=O)C(C)(C)c1cc(C(F)(F)F)cc(C(F)(F)F)c1` [Example 228, (2S,4R)-2-(3,5-Bis-trifluoromethyl-phenyl)-N-[4-(3-fluoro-2-methyl-phenyl)-6-(4-hydroxy-2-hydroxymethyl-pyrrolidin-1-yl)-pyridin-3-yl]-N-methyl-isobutyramide], the results for the Ki in test [1] (setting [3]) and in test [2] (setting [4]) were 1.41 nM and 1.17 nM, respectively.
For the compound `Cc1ccccc1-c1cc(NC[C@H](C)O)ncc1N(C)C(=O)C(C)(C)c1cc(C(F)(F)F)cc(C(F)(F)F)c1` [Example 120, (S)-2-(3,5-Bis-trifluoromethyl-phenyl)-N-[6-(2-hydroxy-propylamino)-4-o-tolyl-pyridin-3-yl]-N-methyl-isobutyramide], the results for the Ki in test [1] (setting [5]) and in test [2] (setting [6]) were 10 nM and 1.38 nM, respectively.
The matching figures for `COc1cc(Cl)cc(C(C)(C)C(=O)N(C)c2cnc(N3CCC[C@H]3CO)cc2-c2ccccc2C)c1` [Example 17, (S)-2-(3-Chloro-5-methoxy-phenyl)-N-[6-(2-hydroxymethyl-pyrrolidin-1-yl)-4-o-tolyl-pyridin-3-yl]-N-methyl-isobutyramide]: 3.16 nM and 3.89 nM.
Consider `CN(CCO)c1cc(-c2ccc(F)cc2)c(N(C)C(=O)C(C)(C)c2cc(C(F)(F)F)cc(C(F)(F)F)c2)cn1` [Example 115, 2-(3,5-bis-trifluoromethyl-phenyl)-N-{4-(4-fluoro-phenyl)-6-[(2-hydroxy-ethyl)-methyl-amino]-pyridin-3-yl}-N-methyl-isobutyramide], for which the Ki in test [1] (setting [5]) is 30.2 nM; in test [2] (setting [6]), 1.86 nM.
